Patent US20180305408A1, “COMPOUNDS FOR INDUCING TISSUE FORMATION AND USES THEREOF” (HISTIDE AG, priority 2015, published 2018)
No end group written: not given here.

Tests used:
[1] = tested on: hMSCs; assay: Loss of stemness: STRO-1 immunostaining of hMSCs cultured with compounds in solution; format: cell-based, Human; conditions: compound in cell culture media solution; for STRO-1 Expression (%) after 96 h: 400 ng/mL added every 24 h; for STRO-1 Expression (%) after 48 h: 400 ng/mL
Excerpt: The following starting materials and reagents were used: • Apatite ceramics (also called apatite or ceramic in the present invention) were synthetized as described in Mater Res. 2004; 7(4): 625-630. • Titanium was obtained from Goodfellow®. • Hydrogel (poly(acrylamide-co-acrylic acid) gel) was synthetized as described in Langmuir 2011; 27(22):13635-42. • PEEK was obtained from Goodfellow®. • PET (Poly(ethylene terephthtalate) was obtained from Goodfellow@. • Type-I collagen sponge was obtained from Sigma®. • Hexane was obtained from Sigma®. • 3-succinimidyl-3-maleimidopropionate (SMP) was obtained from Sigma®. • DMF was obtained from Sigma®. • PBS 1× was obtained from Gibco®. • 3-(ethoxydimethylsilyl)propylamine was obtained from Sigma®. • Ammonium persulfate was obtained from Biorad®. • N,N,N′,N′-tetramethylethylenediamine was obtained from Aldrich®. • Acrylamid was obtained from Merck®. • Acrylic acid was obtained from Merck®. • N,N-methylene-bis-acrylamide was obtained from Merck®. • NaOH was obtained from Aldrich®. • N,N,N′,N′-tetramethylethylenediamine was obtained from Aldrich®. • Dimethylaminopropyl-3-ethylcarbodiimide hydrochloride was obtained from Aldrich®. • N-hydroxysuccinimide was obtained from Aldrich®. • 2-(N-morpholino)-ethane sulfonic acid was obtained from Aldrich®. • MilliQ water: is water characterised in terms of resistivity (typically 18.2 MΩ·cm at 25° C.). • Low glucose Dulbecco's Modified Eagle Medium (DMEM) was obtained from Invitrogen® • Minimum Essential Medium Eagle without ascorbic acid (αMEM) was obtained from Invitrogen®. • All of the cell culture experiments were carried out without any serum in the medium for the first 8 hours of culture. • Osteoblast progenitors or precursor osteoblasts: MC3T3-E1 cells were obtained from ATCC®. These cells were cultured in Alpha-MEM medium supplemented with 10% fetal calf serum (FCS) and 1% penicillin/streptomycin. All cells were used at a low passage number (passage 7), were subconfluently cultured and were seeded at 10^4 cells/cm^2 for the purpose of the experiments. • Human bone marrow Mesenchymal Stem Cells (hMSCs) were obtained from Lonza®. These cells were cultured in Alpha-MEM supplemented with 10% (v/v) FBS and 1% penicillin/streptomycin and incubated in a humidified atmosphere containing 5% (v/v) CO2 at 37° C. All cells were used at a low passage number (passage 2 to 4), were subconfluently cultured and were seeded at 10^4 cells/cm^2 for the purpose of the experiments. • Human adipose Mesenchymal Stem Cells (haMSCs) were obtained from Lonza®. These cells were cultured in Alpha-MEM supplemented with 10% (v/v) FBS and 1% penicillin/streptomycin and incubated in a humidified atmosphere containing 5% (v/v) CO2 at 37° C. All cells were used at a low passage number (passage 3 to 4), were subconfluently cultured and were seeded at 10^4 cells/cm^2 for the purpose of the experiments. • Mouse Hair Follicle Stem Cells were isolated and cultured as described in Methods Mol Biol. 2010; 585:401-20. • Neuron cells are Neuronal Schwann Cells obtained from ATCC®. These cells were cultured in Dulbecco's Modified Eagle's Medium supplemented with 10% (v/v) FBS and 1% penicillin/streptomycin and incubated in a humidified atmosphere containing 5% (v/v) CO2 at 37° C. All cells were used at a low passage number (passage 6-8), were subconfluently cultured and were seeded at 10^4 cells/cm^2 for the purpose of the experiments. • Human umbilical-vein endothelial cells (HUVECs) were purchased from Promocell®. HUVECs were isolated and grown on gelatin coated culture flasks in a complete HUVEC culture medium (IMDM (Invitrogen, France) supplemented with 20% (v/v) fetal bovine serum (FBS) (PAA, France) and 0.4% (v/v) EC growth supplement/heparin kit (Promocell, France)). Cells were subcultured by using trypsin/EDTA (Invitrogen, France) and maintained in a humidified atmosphere containing 5% CO2 at 37° C. These cells were used at a passage number 3 to 5 for the purpose of the experiments. […]

[2] = tested on: Human Hematopoietic Stem Cells; assay: Differentiation of human hematopoietic stem cells: loss of stemness marker CD-34+ (immunostaining); format: cell-based; conditions: compound in cell media solution, 400 ng/mL, 48 hours

| Substance | STRO-1 Expression (%) after 96 h [1] [%] | STRO-1 Expression (%) after 48 h [1] [%] | CD34+ Expression (%) [2] [%] |
| --- | --- | --- | --- |
| APVAAKPLSMLYVDKGVVTYDHHKDAAVEEDEYDKVV (also: cyclic, ring type not given here) [SEQ ID NO: 722] | 18 | 31 |  |
| TPTSSSPINTLYFDDMGVPTYGKIPSSVVDDEYDKVV (also: cyclic, ring not given here) [SEQ ID NO: 720] | 14 | 21 |  |
| APTGGSATSMLYYDKGVVTYLRKHRGGVVKDKGVVTY (also: cyclic, ring type not given here) [SEQ ID NO: 717] | 17 | 28 |  |
| ASASPSSAPVDLKPLSMLYVIGKTPKIDHHKDMIVEESKSIGKTPKID (also: cyclic, ring type not given here) [SEQ ID NO: 734] |  | 33 |  |
| RVPSTSSAPVKTSNITMQIMDNGRVLLLGEMSMIVEESGSLIGKTPKID (also: cyclic, ring type not given here) [SEQ ID NO: 737] |  | 28 |  |
| VPQQQEPLTTLYYDEYDKVVEQLSNQQVKSNDKQQII (also: cyclic, ring not given here) [SEQ ID NO: 724] | 16 | 29 |  |
| IPKASSAPVGQRPVQMRKIDKGVVTYKKATVSSVEESGSLDKGVVTY (also: cyclic, ring type not given here) [SEQ ID NO: 739] |  |  | 35 |
| VPQRLEPLTILYYDAANNVVEQLSNDMVKSDENEKV (also: cyclic, ring not given here) [SEQ ID NO: 731] |  | 31 |  |
| EPSSSRVRLEPLTTLYYGGGGGGGEQLSNVVEEHSKDKGVVTY (also: cyclic, ring type not given here) [SEQ ID NO: 745] |  |  | 37 |
| VPTVVSAISTLYLRIKPHQGQHLKNYQVVVVENDKQQII (also: cyclic, ring not given here) [SEQ ID NO: 715] | 24 | 31 |  |
| PTSSAPTDLRSVKMAKVEIVRKKPIFKEVQVDMVVKASGDKGVVTY (also: cyclic, ring type not given here) [SEQ ID NO: 742] |  |  | 33 |
| VPQAAEPLPMLYYDKGVVTYEQLSNAAVRSDKGVVTY (also: cyclic, ring not given here) [SEQ ID NO: 723] | 20 | 34 |  |
| KIPKASSVPQELEPLPIVYYDENEKVVEQLSNDMVRSGSGSRDENEKV (also: cyclic, ring type not given here) [SEQ ID NO: 735] |  | 26 |  |
| TQVAARPVQTRKIDDMGVPTKKATVAAEDHDKGVVTY (also: cyclic, ring not given here) [SEQ ID NO: 730] | 21 | 36 |  |
| VPTVVSPISMLYIDDMGVPTYKQYEVVVVEDDMGVPT (also: cyclic, ring not given here) [SEQ ID NO: 721] | 16 | 29 |  |
| SRVAARSVKMAKVGGGGGGGKEVQVAAEEHGGGGGG (also: cyclic, ring not given here) [SEQ ID NO: 726] | 21 | 39 |  |
| VPTAASAISILYLDAANNVVLKNYQAAVVEDKGVVTY (also: cyclic, ring not given here) [SEQ ID NO: 713] | 23 | 29 |  |
| VPTAAEPLTMLYYEIVRKKPIFEQLSNMVEHSDDMGVPT (also: cyclic, ring not given here) [SEQ ID NO: 744] |  |  | 38 |

| Substance | STRO-1 Expression (%) after 96 h [1] [%] | STRO-1 Expression (%) after 48 h [1] [%] | CD34+ Expression (%) [2] [%] |
| --- | --- | --- | --- |
| KASSSRVKMSNITVQ1MRIKPHOGQHIGEMSVVEEHASGSHDKGVVTY (KASSSRVKMSNITVQIMRIKPHQGQHIGEMSVVEEHASGSHDKGVVTY; not fully specified (residue 23); printed as KASSSRVKMSNITVQ1MRIKPHOGQHIGEMSVVEEHASGSHDKGVVTY; also: cyclic, ring type not given here) [SEQ ID NO: 743] |  |  | 42 |
| VSQAARPVQTRKIDDMGVPTKKATVAAVKSDDMGVPT (also: cyclic, ring not given here) [SEQ ID NO: 741] |  |  | 26 |
| ASASPSSVSQDLRSVKVAKVIGKTPKIKEVQVMIVKSSKIGKTPKID (also: cyclic, ring type not given here) [SEQ ID NO: 738] |  | 31 |  |
| VPTSSSPISTLYIDKGVVTYLKYHYSSVAEDEYDKVV (also: cyclic, ring not given here) [SEQ ID NO: 718] | 19 | 26 |  |
| HVTKPTSVPTKLSPISILFIDDSSNVIYKQYENMVVESSGSHIGKTPKID (also: cyclic, ring type not given here) [SEQ ID NO: 733] |  | 23 |  |
| APVKMEPLPTVYYDDMGVPTEQLSNDMVEESGSLDDMGVPT (also: cyclic, ring type not given here) [SEQ ID NO: 746] |  |  | 37 |
| VPTAAEPISMLYLDEYDKVVKFKYEAAAVSNDKQQII (also: cyclic, ring not given here) [SEQ ID NO: 719] | 16 | 26 |  |
| VPTMMSNITTQIMRIKPHQGQHIGEMSMMQHNDEYDKVV (also: cyclic, ring not given here) [SEQ ID NO: 725] | 20 | 35 |  |
| EPSSVSQAAEPLPIVYYRIKPHOGQHEQLSNMIVKSSKSSDDMGVPT [SEQ ID NO: 747] |  |  | 38 |
| VPEAASSLSMLFFEIVRKKPIFLKVYPAATVEDKGVVTY (also: cyclic, ring not given here) [SEQ ID NO: 714] | 18 | 28 |  |
| NDEGLESVPTGQSPISILYIRIKPHQGQHYKQYELEEHSQSESRDENEKV (also: cyclic, ring type not given here) [SEQ ID NO: 732] |  | 27 |  |
| VPTGGEPLTTLYYNDKQQIIEQLSNGGEHSDDMGVPT (also: cyclic, ring not given here) [SEQ ID NO: 728] | 17 | 32 |  |
| KASSVPQEERPVQMRKIGGGGGGGKKATVMIVRSSKSSDDMGVPT (also: cyclic, ring type not given here) [SEQ ID NO: 740] |  |  | 31 |
| VPTDDSATSTLYYDKGVVTYLRKHRDDEHSDKGVVTY (also: cyclic, ring not given here) [SEQ ID NO: 727] | 13 | 26 |  |
| SRVLLRPVQMRKIDKGVVTYKKATVLLEEHDKGVVTY (also: cyclic, ring not given here) [SEQ ID NO: 729] | 14 | 37 |  |
| AVPKASSVPQKLEPLTILYYDSSNNVIEQLSNNMVKSIGKTPKID (also: cyclic, ring type not given here) [SEQ ID NO: 736] |  | 37 |  |
| APTLLNAISMLYFNDKQQIILKKYRLLVVRNDKQQII (also: cyclic, ring type not given here) [SEQ ID NO: 716] | 20 | 30 |  |
